# Patent US5216005A, “Immunosuppressive analogues and derivatives of succinylacetone” (priority 1990, dated 1993)
# Key:
# [1] = system: adjuvant induced arthritis; assay: adjuvant induced arthritis in rats, overall arthritis score; intraarticular right paw, per kg: succinylacetone 325 μg, methyl ester 150 μg, 4-acetyl-5-oxohexanoate 560 μg; assay type: in vivo, rat
# [2] = viability of peripheral blood lymphocytes with or without PHA, trypan blue exclusion; assay type: cell-based, human; details: human, peripheral blood lymphocytes; for viability at 2200 µM: 2.2 mM; for viability at 6700 µM: 6.7 mM; for viability at 20000 µM: 20 mM
# Procedure: (§1) Viability was determined using the trypan blue exclusion method well known in the art. […] The assays were conducted in duplicate wherein peripheral blood lymphocytes were isolated from two separate individuals, and then treated with or without phytohemagglutinin in the presence of various concentrations of the appropriate succinylacetone derivative.
# [3] = system: peripheral blood lymphocytes; assay: as above; assay type: cell-based, human
# Procedure: as §1
# [4] = system: IL-2 (human lymphoid cells); assay: IL-2 production in primary mixed lymphocyte reaction (HT-2 cell assay); assay type: cell-based; design: IL-2: unit not given here; details: for IL-2: 1° MLR
# Procedure: Derivatives of succinylacetone were tested for immunosuppressive activity in several different types of assay systems. The first consisted of measuring the amounts of interleukin-2 (IL-2), and interferon-γ (IFN-γ) produced by human lymphoid cells in a mixed lymphocyte reaction. Low levels of these molecules in the reaction mixture indicate that the immune system is being suppressed by the subject succinylacetone derivatives. IL-2 was measured by enumerating the number of viable HT-2 cells found after an 18-24 hours period. HT-2 cells are a mouse IL-2 dependent cell line which die in the absence of IL-2. The assay is described by Gillis et al., J. of Immunol. […] The mixed lymphocyte reaction assay can be carried out by techniques well known to those skilled in the art. L. Hudson and F. C. Huy, Practical Immunology, p. […] Briefly this consists of isolating lymphocytes from human peripheral blood by standard density gradient centrifugation techniques from two separate individuals. Approximately 2×10^5 lymphocytes of each individual are combined to yield a total of 4×10^5 lymphocytes per culture. All procedures are carried out under sterile conditions, and the lymphocytes are isolated and kept in physiologically compatible solutions. To the mixture of lymphocytes is added a desired amount of an appropriate succinylacetone derivative, and after different times an aliquot of the mixture is removed and assayed for IL-2 or IFN-γ, or ^[…] is measured.
structure (smiles),measurement,setting,value
"COC(=O)CCC(=O)CC(C)=O [Succinylacetone Methyl Ester, methyl 4-6-dioxoheptanoate]",overall arthritis score,"[1]; Exp. I (treated from same day), day 14",2.4 ± 2.5
same,overall arthritis score,"[1]; Exp. I (treated from same day), day 16",2.8 ± 2.4
same,overall arthritis score,"[1]; Exp. I (treated from same day), day 18",3.4 ± 1.9
same,overall arthritis score,"[1]; Exp. I (treated from same day), day 20",6.4 ± 3.6
same,overall arthritis score,"[1]; Exp. I (treated from same day), day 22",6.8 ± 4.0
same,overall arthritis score,"[1]; Exp. I (treated from same day), day 24",7.2 ± 4.1
same,overall arthritis score,"[1]; Exp. I (treated from same day), day 26",6.2 ± 3.7
same,overall arthritis score,"[1]; Exp. II (treated from day 4), day 14",1.6 ± 2.6
same,overall arthritis score,"[1]; Exp. II (treated from day 4), day 16",2 ± 2.8
same,overall arthritis score,"[1]; Exp. II (treated from day 4), day 18",3.2 ± 4.0
same,overall arthritis score,"[1]; Exp. II (treated from day 4), day 20",4.0 ± 4.6
same,overall arthritis score,"[1]; Exp. II (treated from day 4), day 22",4.8 ± 4.1
same,overall arthritis score,"[1]; Exp. II (treated from day 4), day 24",4.8 ± 4.1
same,overall arthritis score,"[1]; Exp. II (treated from day 4), day 26",5.6 ± 4.7
same,overall arthritis score,"[1]; Exp. III (treated from day 14), day 14",1.2 ± 1.8
same,overall arthritis score,"[1]; Exp. III (treated from day 14), day 16",1.4 ± 1.3
same,overall arthritis score,"[1]; Exp. III (treated from day 14), day 18",1.4 ± 2.2
same,overall arthritis score,"[1]; Exp. III (treated from day 14), day 20",4.8 ± 3.8
same,overall arthritis score,"[1]; Exp. III (treated from day 14), day 22",4.4 ± 3.6
same,overall arthritis score,"[1]; Exp. III (treated from day 14), day 24",4.4 ± 3.6
same,overall arthritis score,"[1]; Exp. III (treated from day 14), day 26",3.0 ± 3.3
same,effect on arthritis,"[1]; comparison of treatment schedules, in words",most effective when it is administered 14 days after induction of the disease
same,viability,[2]; between 2.2 mM and 733 μM,~100%
same,viability at 3 µM,"[2]; first individual, (+) PHA",100%
same,viability at 9 µM,"[2]; first individual, (+) PHA",100%
same,viability at 27 µM,"[2]; first individual, (+) PHA",97%
same,viability at 81 µM,"[2]; first individual, (+) PHA",96%
same,viability at 244 µM,"[2]; first individual, (+) PHA",97%
same,viability at 733 µM,"[2]; first individual, (+) PHA",90%
same,viability at 2200 µM,"[2]; first individual, (+) PHA",89%
same,viability at 6700 µM,"[2]; first individual, (+) PHA",8%
same,viability at 20000 µM,"[2]; first individual, (+) PHA",0%
same,viability at 3 µM,"[2]; first individual, (-) PHA",100%
same,viability at 9 µM,"[2]; first individual, (-) PHA",100%
same,viability at 27 µM,"[2]; first individual, (-) PHA",100%
same,viability at 81 µM,"[2]; first individual, (-) PHA",100%
same,viability at 244 µM,"[2]; first individual, (-) PHA",100%
same,viability at 733 µM,"[2]; first individual, (-) PHA",96%
same,viability at 2200 µM,"[2]; first individual, (-) PHA",94%
same,viability at 6700 µM,"[2]; first individual, (-) PHA",7%
same,viability at 20000 µM,"[2]; first individual, (-) PHA",0%
same,viability at 3 µM,"[2]; second individual, (+) PHA",100%
same,viability at 9 µM,"[2]; second individual, (+) PHA",100%
same,viability at 27 µM,"[2]; second individual, (+) PHA",94%
same,viability at 81 µM,"[2]; second individual, (+) PHA",98%
same,viability at 244 µM,"[2]; second individual, (+) PHA",96%
same,viability at 733 µM,"[2]; second individual, (+) PHA",94%
same,viability at 2200 µM,"[2]; second individual, (+) PHA",93%
same,viability at 6700 µM,"[2]; second individual, (+) PHA",6%
same,viability at 20000 µM,"[2]; second individual, (+) PHA",0%
same,viability at 3 µM,"[2]; second individual, (-) PHA",100%
same,viability at 9 µM,"[2]; second individual, (-) PHA",100%
same,viability at 27 µM,"[2]; second individual, (-) PHA",100%
same,viability at 81 µM,"[2]; second individual, (-) PHA",100%
same,viability at 244 µM,"[2]; second individual, (-) PHA",98%
same,viability at 733 µM,"[2]; second individual, (-) PHA",95%
same,viability at 2200 µM,"[2]; second individual, (-) PHA",94%
same,viability at 6700 µM,"[2]; second individual, (-) PHA",4%
same,viability at 20000 µM,"[2]; second individual, (-) PHA",0%
same,viability,[3]; about 6.7 mM,little viability
same,Cells/ml,"[3]; first individual, (+) PHA, 3 μM",0.48 X 10^6 Cells/ml
same,Cells/ml,"[3]; first individual, (+) PHA, 9 μM",0.32 X 10^6 Cells/ml
same,Cells/ml,"[3]; first individual, (+) PHA, 27 μM",0.37 X 10^6 Cells/ml
same,Cells/ml,"[3]; first individual, (+) PHA, 81 μM",0.4 X 10^6 Cells/ml
same,Cells/ml,"[3]; first individual, (+) PHA, 244 μM",0.38 X 10^6 Cells/ml
same,Cells/ml,"[3]; first individual, (+) PHA, 733 μM",0.4 X 10^6 Cells/ml
same,Cells/ml,"[3]; first individual, (+) PHA, 2.2 mM",0.3 X 10^6 Cells/ml
same,Cells/ml,"[3]; first individual, (+) PHA, 6.7 mM",0.13 X 10^6 Cells/ml
same,Cells/ml,"[3]; first individual, (-) PHA, 3 μM",0.60 X 10^6 Cells/ml
same,Cells/ml,"[3]; first individual, (-) PHA, 9 μM",0.36 X 10^6 Cells/ml
same,Cells/ml,"[3]; first individual, (-) PHA, 27 μM",0.60 X 10^6 Cells/ml
same,Cells/ml,"[3]; first individual, (-) PHA, 81 μM",0.37 X 10^6 Cells/ml
same,Cells/ml,"[3]; first individual, (-) PHA, 244 μM",0.35 X 10^6 Cells/ml
same,Cells/ml,"[3]; first individual, (-) PHA, 733 μM",0.34 X 10^6 Cells/ml
same,Cells/ml,"[3]; first individual, (-) PHA, 2.2 mM",0.36 X 10^6 Cells/ml
same,Cells/ml,"[3]; first individual, (-) PHA, 6.7 mM",0.15 X 10^6 Cells/ml
same,Cells/ml,"[3]; second individual, (+) PHA, 3 μM",0.50 X 10^6 Cells/ml
same,Cells/ml,"[3]; second individual, (+) PHA, 9 μM",0.50 X 10^6 Cells/ml
same,Cells/ml,"[3]; second individual, (+) PHA, 27 μM",0.40 X 10^6 Cells/ml
same,Cells/ml,"[3]; second individual, (+) PHA, 81 μM",0.55 X 10^6 Cells/ml
same,Cells/ml,"[3]; second individual, (+) PHA, 244 μM",0.52 X 10^6 Cells/ml
same,Cells/ml,"[3]; second individual, (+) PHA, 733 μM",0.39 X 10^6 Cells/ml
same,Cells/ml,"[3]; second individual, (+) PHA, 2.2 mM",0.42 X 10^6 Cells/ml
same,Cells/ml,"[3]; second individual, (+) PHA, 6.7 mM",0.24 X 10^6 Cells/ml
same,Cells/ml,"[3]; second individual, (-) PHA, 3 μM",0.5 X 10^6 Cells/ml
same,Cells/ml,"[3]; second individual, (-) PHA, 9 μM",0.51 X 10^6 Cells/ml
same,Cells/ml,"[3]; second individual, (-) PHA, 27 μM",0.43 X 10^6 Cells/ml
same,Cells/ml,"[3]; second individual, (-) PHA, 81 μM",0.53 X 10^6 Cells/ml
same,Cells/ml,"[3]; second individual, (-) PHA, 244 μM",0.46 X 10^6 Cells/ml
same,Cells/ml,"[3]; second individual, (-) PHA, 733 μM",0.48 X 10^6 Cells/ml
same,Cells/ml,"[3]; second individual, (-) PHA, 2.2 mM",0.42 X 10^6 Cells/ml
same,Cells/ml,"[3]; second individual, (-) PHA, 6.7 mM",0.23 X 10^6 Cells/ml
same,IL-2,"[4]; Exp I, 3 μM",41
same,IL-2,"[4]; Exp I, 9 μM",28
same,IL-2,"[4]; Exp I, 27 μM",25
same,IL-2,"[4]; Exp I, 81 μM",24
same,IL-2,"[4]; Exp I, 244 μM",19
same,IL-2,"[4]; Exp I, 733 μM",14
same,IL-2,"[4]; Exp I, 2.2 mM",< 6
same,IL-2,"[4]; Exp I, 6.7 mM",< 6
same,IL-2,"[4]; Exp I, 20 mM",< 6
same,IL-2,"[4]; Exp II, 3 μM",34
same,IL-2,"[4]; Exp II, 9 μM",38
same,IL-2,"[4]; Exp II, 27 μM",34
same,IL-2,"[4]; Exp II, 81 μM",28
same,IL-2,"[4]; Exp II, 244 μM",28
same,IL-2,"[4]; Exp II, 733 μM",23
same,IL-2,"[4]; Exp II, 2.2 mM",< 8
same,IL-2,"[4]; Exp II, 6.7 mM",< 8
same,IL-2,"[4]; Exp II, 20 mM",< 8
same,IC50,"[4]; Homo sapiens, HT2, read-out: concentration that inhibits IL-2 production by about 50%",~733 µM
